Source: patent US9603900B2, “Use of PACAP for the treatment of viral infections in aquatic organisms” (Centro de Ingenieria Genetica y Biotecnologia, priority 2010, dated 2017)

Tests used:
Assay type in all cases: cell-based, rainbow trout (Oncorhynchus mykiss)
Conditions in all cases: 48 hours
[1] = tested on: TLR9 coding gene; assay: PACAP38 effect on transcription of TLR9 coding gene in leukocytes (qPCR)
Excerpt: (§1) Juvenile rainbow trout (O. mykiss) was used of approximately 50 grams, VHSV and IPNV free. Fish (n=5) were anesthetized with methanesulfonic acid salt (Sigma, USA) and were removed aseptically, first peripheral blood from the tail vein and then the anterior kidney were isolated from peripheral blood leukocytes from anterior kidney and trout from 5 independently, following the method described by Graham and Secombe (Graham and Secombe ([…]) Immunology 65:293-7).
(§2) The peripheral blood of each fish was diluted 4 times in half Leibovitz (L-15, Gibco, UK) supplemented with penicillin 100 IU/mL, streptomycin (100 μg/mL), heparin (10 units/mL) and 2% FCS and placed carefully on a Percoll gradient to 51%. The ring of cells corresponding to leukocytes was removed carefully, washed twice in L-15 containing 0.1% FCS.
(§3) The anterior kidney was passed through a nylon mesh of 100 μm Leibovitz (L-15, Gibco, UK) supplemented with penicillin 100 IU/mL, streptomycin (100 μg/mL), heparin (10 units/mL) and 2% FCS. The resulting cell suspension was diluted 1:4 in the same medium supplemented L-15 and placed carefully on a Percoll gradient to 51%. The ring of cells corresponding to leukocytes was removed carefully, washed twice in L-15 containing 0.1% FCS.
(§4) The cells were suspended in L-15 with 5% FCS at a concentration of 5×10^6 cells per ml and dispensed in 24-well plates at 1 mL per well. The leukocytes were treated with 3 doses of PACAP38 from Clarias gariepinus obtained by chemical synthesis (10^−10 M, 10^−9 M and 10^−8 M) in duplicate and used as negative control untreated leukocytes dispensed in duplicate.
The levels of Mx, IFN and TLR9 were evaluated 48 hours after treatment. […]
For the synthesis of cDNA it was used a commercial reagent kit uses SuperScript III reverse transcriptase (Invitrogen). Finally, for quantitative PCR reactions (qPCR) was used a mixture of PCR from commercial sources: Power SYBR Green PCR Master Mix (Applied Biosystems). […] The results were expressed as 2^−ΔCt, where ΔCt is equal to the remainder of the gene Ct value minus the assessed value of Ct normalizer gene EF 1α).

[2] = tested on: Mx protein coding gene; assay: PACAP38 effect on transcription of Mx protein coding gene in leukocytes (qPCR)
Excerpt: as §1, §2, §3, §4
(§5) The levels of Mx, IFN and TLR9 were evaluated 48 hours after treatment. In order to do so, total RNA was purified from leukocyte cultures treated with PACAP by the method described by Chomczynski and Sacchi (Chomczynski and Sacchi (1987) Anal. Biochem. 162:156-9).
(§6) For the synthesis of cDNA it was used a commercial reagent kit uses SuperScript III reverse transcriptase (Invitrogen). Finally, for quantitative PCR reactions (qPCR) was used a mixture of PCR from commercial sources: Power SYBR Green PCR Master Mix (Applied Biosystems). The qPCR results were normalized against a constitutive endogenous constitutive expression gene specifically elongation 1α (EF 1α) and were performed in triplicate. The results were expressed as 2^−ΔCt, where ΔCt is equal to the remainder of the gene Ct value minus the assessed value of Ct normalizer gene EF 1α).

[3] = tested on: IFN γ coding gene; assay: PACAP38 effect on transcription of IFN γ coding gene in leukocytes (qPCR)
Excerpt: as §1, §2, §3, §4, §5, §6

[4] = head kidney leukocytes, 10^−9 M

PACAP38
TLR9 expression levels versus negative control [1, 4]: statistically higher than the negative control
TLR9 expression levels ([1]; peripheral blood leukocytes, 10^−10-10^−8 M, undetectable in unstimulated cultures): detectable levels
dose giving the highest TLR9 expression values ([1]; peripheral blood leukocytes): 10^−10 M
Mx protein expression levels relative to negative control [2, 4]: stimulatory effect
Mx protein expression levels relative to negative control ([2]; peripheral blood leukocytes, 10^−8 M): did not differ
Mx protein expression levels relative to negative control ([2]; peripheral blood leukocytes, 10^−9 M, below levels at 10^−10 M): stimulatory effect
Mx protein expression levels relative to negative control ([2]; peripheral blood leukocytes, 10^−10 M): increase
IFN γ expression levels versus control group ([3]; anterior kidney leukocytes, 10^−9 and 10^−8 M): statistically higher than the control group
dose giving the best IFN γ expression results ([3]; anterior kidney leukocytes): 10^−9 M
IFN γ expression levels ([3]; peripheral blood leukocytes, 3 doses (10^−10, 10^−9, 10^−8 M), undetectable in non-treated cultures): detectable levels of expression
dose giving the highest IFN γ expression level ([3]; peripheral blood leukocytes): 10^−9 M
